# Test results from article PMC4992173, “Divergent synthesis and identification of the cellular targets of deoxyelephantopins” (Nature Communications, 2016).
# Molecular target: T1, Protein transport protein Sec24C (SEC24C) (Homo sapiens, UniProt P53992)
# T1 construct: endogenous in cells; host or cells: MCF7
# Experiment: In situ competitive profiling in live MCF7 cells (LFQ): SEC24C
# Type: cell-based
# Conditions: 4 h, then 10 µM 24c, n=4
# Excerpt: In our efforts to determine the direct molecular targets of deoxyelephantopin we first performed a gel-based competitive in situ proteomic profiling assay[41] […] While the greater conformational flexibility of probe 24c could potentially lead to more promiscuous target engagement relatively to deoxyelephantopin, it was favoured based on the fact that an alkyne moiety appended to the rigid scaffold of deoxyelephantopin may hinder some of its interactions. MCF7 cells were pretreated with various concentrations of deoxyelephantopin for 4 h, harvested, lysed and the lysates were treated with the fluorogenic probe 24c-Cy3 (10 μM; Supplementary Fig. 10). […] Furthermore, cells were pretreated with 20 μM concentration of deoxyelephantopin or 24c and the proteomic profiles were compared (Fig. 6b, Supplementary Fig. 11). Multiple bands were detected that were equally competed by both DEP and 24c, thus again confirming that 24c can be used as an acceptable clickable analogue of deoxyelephantopin in pulldown assays. Having established the optimal labelling conditions by SDS–PAGE, we next carried out a mass spectrometry-based competitive profiling assay[42] coupled with the method of stable isotope labelling of amino acids in culture (SILAC)[43]. […]
# Figure 6 Proteome-wide identification of deoxyelephantopin targets. […] Quantification was performed using label-free quantification (LFQ) method (n=4). […]
# T1 sequence (P53992 whole entry): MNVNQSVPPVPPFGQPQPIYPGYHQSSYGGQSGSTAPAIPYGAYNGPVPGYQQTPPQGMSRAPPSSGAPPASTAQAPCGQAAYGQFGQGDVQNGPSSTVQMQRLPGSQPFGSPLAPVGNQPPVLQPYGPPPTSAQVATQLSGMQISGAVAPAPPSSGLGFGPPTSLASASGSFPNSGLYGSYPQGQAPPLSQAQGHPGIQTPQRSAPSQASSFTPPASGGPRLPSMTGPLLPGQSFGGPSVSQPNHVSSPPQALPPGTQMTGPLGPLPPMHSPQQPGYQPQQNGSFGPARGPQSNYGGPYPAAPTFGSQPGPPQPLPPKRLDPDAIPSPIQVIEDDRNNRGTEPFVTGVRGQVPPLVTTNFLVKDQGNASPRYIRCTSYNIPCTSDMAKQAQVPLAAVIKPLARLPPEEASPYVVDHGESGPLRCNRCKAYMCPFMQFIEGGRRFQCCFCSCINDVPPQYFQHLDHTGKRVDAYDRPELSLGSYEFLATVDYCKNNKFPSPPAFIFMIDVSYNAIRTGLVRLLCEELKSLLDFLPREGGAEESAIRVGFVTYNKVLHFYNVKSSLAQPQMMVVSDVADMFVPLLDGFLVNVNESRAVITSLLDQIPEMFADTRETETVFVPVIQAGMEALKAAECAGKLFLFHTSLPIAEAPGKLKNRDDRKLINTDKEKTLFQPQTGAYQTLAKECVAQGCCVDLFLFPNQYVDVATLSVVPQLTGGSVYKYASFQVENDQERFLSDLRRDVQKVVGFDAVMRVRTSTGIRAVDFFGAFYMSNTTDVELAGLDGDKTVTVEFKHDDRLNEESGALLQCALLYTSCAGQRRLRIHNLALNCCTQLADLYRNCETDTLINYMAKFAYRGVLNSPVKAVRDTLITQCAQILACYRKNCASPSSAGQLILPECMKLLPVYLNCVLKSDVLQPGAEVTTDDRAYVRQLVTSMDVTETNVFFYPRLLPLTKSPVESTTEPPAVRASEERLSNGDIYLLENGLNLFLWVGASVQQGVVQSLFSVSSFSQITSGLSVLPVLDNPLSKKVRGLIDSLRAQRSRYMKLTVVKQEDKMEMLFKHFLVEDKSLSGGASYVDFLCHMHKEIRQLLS
smiles,measurement,value
C=C(C)C(=O)O[C@H]1CC2=C[C@@H](C/C(C)=C/[C@H]3OC(=O)C(=C)[C@H]13)OC2=O [deoxyelephantopin],LFQ ratio 20 µM Deoxyelephantopin/DMSO with 24c,0.18
